Assay results from PubChem BioAssay (NCI).
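Interpolation was linear, between the two tested concentrations surrounding the appropriate level; five concentrations were tested over 48 hours in 96-well plates. GI50: concentration for 50% inhibition of growth. The concentration for full growth arrest is given as TGI.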

Experiments:
Test in all cases: NCI-60 cell line screen, 48 h
786-0 renal = test system: 786-0 renal
A498 renal = test system: A498 renal
A549 NSCLC = test system: A549 NSCLC
ACHN renal = test system: ACHN renal
BT-549 breast = test system: BT-549 breast
CAKI-1 renal = test system: CAKI-1 renal
COLO 205 colon = test system: COLO 205 colon
DU-145 prostate = test system: DU-145 prostate
EKVX NSCLC = test system: EKVX NSCLC
HCT-116 colon = test system: HCT-116 colon
HCT-15 colon = test system: HCT-15 colon
HL-60(TB) leukemia = test system: HL-60(TB) leukemia
HS 578T breast = test system: HS 578T breast
HT29 colon = test system: HT29 colon
IGROV1 ovarian = test system: IGROV1 ovarian
K-562 leukemia = test system: K-562 leukemia
KM12 colon = test system: KM12 colon
LOX IMVI melanoma = test system: LOX IMVI melanoma
M14 melanoma = test system: M14 melanoma
MCF7 breast = test system: MCF7 breast
MDA-MB-231 breast = test system: MDA-MB-231 breast
MDA-MB-435 = test system: MDA-MB-435
MOLT-4 leukemia = test system: MOLT-4 leukemia
NCI-H226 lung = test system: NCI-H226 lung
NCI-H23 lung = test system: NCI-H23 lung
NCI-H460 lung = test system: NCI-H460 lung
NCI-H522 lung = test system: NCI-H522 lung
NCI/ADR-RES ovarian = test system: NCI/ADR-RES ovarian
OVCAR-3 ovarian = test system: OVCAR-3 ovarian
OVCAR-4 ovarian = test system: OVCAR-4 ovarian
OVCAR-5 ovarian = test system: OVCAR-5 ovarian
OVCAR-8 ovarian = test system: OVCAR-8 ovarian
PC-3 prostate = test system: PC-3 prostate
RPMI-8226 leukemia = test system: RPMI-8226 leukemia
RXF 393 renal = test system: RXF 393 renal
SF-268 CNS = test system: SF-268 CNS
SF-295 CNS = test system: SF-295 CNS
SF-539 CNS = test system: SF-539 CNS
SK-MEL-2 melanoma = test system: SK-MEL-2 melanoma
SK-MEL-28 melanoma = test system: SK-MEL-28 melanoma
SK-MEL-5 melanoma = test system: SK-MEL-5 melanoma
SN12C renal = test system: SN12C renal
SNB-19 CNS = test system: SNB-19 CNS
SNB-75 CNS = test system: SNB-75 CNS
SR leukemia = test system: SR leukemia
SW-620 colon = test system: SW-620 colon
TK-10 renal = test system: TK-10 renal
U251 CNS = test system: U251 CNS
UACC-257 melanoma = test system: UACC-257 melanoma
UACC-62 melanoma = test system: UACC-62 melanoma
UO-31 renal = test system: UO-31 renal
HCC-2998 colon = test system: HCC-2998 colon
HOP-92 NSCLC = test system: HOP-92 NSCLC
MALME-3M melanoma = test system: MALME-3M melanoma
SK-OV-3 ovarian = test system: SK-OV-3 ovarian

## COc1ccc2[nH]cc(Cc3c[nH]c4ccc(OC)cc34)c2c1
786-0 renal
  GI50: 38.9 µM
  TGI: > 100 µM
A498 renal
  GI50: 3.32 µM
  TGI: 14.5 µM
A549 NSCLC
  GI50: 19.1 µM
  TGI: 46.9 µM
ACHN renal
  GI50: 20 µM
  TGI: 43.9 µM
BT-549 breast
  GI50: 17.4 µM
  TGI: 36.1 µM
CAKI-1 renal
  GI50: 19.9 µM
  TGI: 44.4 µM
COLO 205 colon
  GI50: 18.6 µM
  TGI: 35.3 µM
DU-145 prostate
  GI50: 15.2 µM
  TGI: 34 µM
EKVX NSCLC
  GI50: 17.9 µM
  TGI: 45.9 µM
HCT-116 colon
  GI50: 15.8 µM
  TGI: 29.2 µM
HCT-15 colon
  GI50: 14.1 µM
  TGI: 27.2 µM
HL-60(TB) leukemia
  GI50: 44.2 µM
  TGI: > 100 µM
HS 578T breast
  GI50: 15.6 µM
  TGI: 49.6 µM
HT29 colon
  GI50: 17.9 µM
  TGI: 32.3 µM
IGROV1 ovarian
  GI50: 15.4 µM
  TGI: 33.1 µM
K-562 leukemia
  GI50: 19.1 µM
  TGI: 71.4 µM
KM12 colon
  GI50: 19 µM
  TGI: 41.4 µM
LOX IMVI melanoma
  GI50: 14.9 µM
  TGI: 28.1 µM
M14 melanoma
  GI50: 20.3 µM
  TGI: 44 µM
MCF7 breast
  GI50: 28.7 µM
  TGI: > 100 µM
MDA-MB-231 breast
  GI50: 4.65 µM
  TGI: 19.4 µM
MDA-MB-435
  GI50: 18.1 µM
  TGI: 35.3 µM
MOLT-4 leukemia
  GI50: 37.4 µM
  TGI: > 100 µM
NCI-H226 lung
  GI50: 18.5 µM
  TGI: 48.9 µM
NCI-H23 lung
  GI50: 21.7 µM
  TGI: 40.7 µM
NCI-H460 lung
  GI50: 22.7 µM
  TGI: 63.8 µM
NCI-H522 lung
  GI50: 25.5 µM
  TGI: 77.3 µM
NCI/ADR-RES ovarian
  GI50: 20.4 µM
  TGI: 42.1 µM
OVCAR-3 ovarian
  GI50: 13.3 µM
  TGI: 31.3 µM
OVCAR-4 ovarian
  GI50: 17.6 µM
  TGI: 40.3 µM
OVCAR-5 ovarian
  GI50: 24.8 µM
  TGI: 58 µM
OVCAR-8 ovarian
  GI50: 17.4 µM
  TGI: 37.4 µM
PC-3 prostate
  GI50: 19.3 µM
  TGI: 39.4 µM
RPMI-8226 leukemia
  GI50: 20.8 µM
  TGI: 40.3 µM
RXF 393 renal
  GI50: 28 µM
  TGI: 54.7 µM
SF-268 CNS
  GI50: 22.7 µM
  TGI: 62.5 µM
SF-295 CNS
  GI50: 16.6 µM
  TGI: 34.5 µM
SF-539 CNS
  GI50: 17.2 µM
  TGI: 33.1 µM
SK-MEL-2 melanoma
  GI50: 17.4 µM
  TGI: 43.3 µM
SK-MEL-28 melanoma
  GI50: 21.8 µM
  TGI: 53 µM
SK-MEL-5 melanoma
  GI50: 16.5 µM
  TGI: 30.1 µM
SN12C renal
  GI50: 17.5 µM
  TGI: 31.3 µM
SNB-19 CNS
  GI50: 29.3 µM
  TGI: 79.8 µM
SNB-75 CNS
  GI50: 13.7 µM
  TGI: 50.6 µM
SR leukemia
  GI50: 77.8 µM
  TGI: > 100 µM
SW-620 colon
  GI50: 18.3 µM
  TGI: 32.2 µM
TK-10 renal
  GI50: 15.9 µM
  TGI: 44 µM
U251 CNS
  GI50: 15.9 µM
  TGI: 29.4 µM
UACC-257 melanoma
  GI50: 32.4 µM
  TGI: 88.1 µM
UACC-62 melanoma
  GI50: 16 µM
  TGI: 29.5 µM
UO-31 renal
  GI50: 27.5 µM
  TGI: > 100 µM

## Cn1cc(-c2csc(-c3cn(CCCN4CCCCC4)c4ccc(Br)cc34)n2)c2cccnc21
A498 renal
  GI50: 3.69 µM
  TGI: 14 µM
ACHN renal
  GI50: 1.65 µM
  TGI: 3 µM
DU-145 prostate
  GI50: 1.79 µM
  TGI: 3.21 µM
HCC-2998 colon
  GI50: 1.86 µM
  TGI: 3.61 µM
HOP-92 NSCLC
  GI50: 1.79 µM
  TGI: 3.63 µM
HS 578T breast
  GI50: 2.09 µM
  TGI: 5.41 µM
IGROV1 ovarian
  GI50: 1.63 µM
  TGI: 3.33 µM
KM12 colon
  GI50: 1.89 µM
  TGI: 3.54 µM
MALME-3M melanoma
  GI50: 1.58 µM
  TGI: 3.16 µM
MDA-MB-231 breast
  GI50: 1.72 µM
  TGI: 3.21 µM
MDA-MB-435
  GI50: 1.74 µM
  TGI: 3.16 µM
NCI-H226 lung
  GI50: 2.07 µM
  TGI: 4.84 µM
NCI-H23 lung
  GI50: 1.79 µM
  TGI: 3.51 µM
NCI-H460 lung
  GI50: 1.87 µM
  TGI: 3.4 µM
NCI/ADR-RES ovarian
  GI50: 1.92 µM
  TGI: 3.73 µM
OVCAR-3 ovarian
  GI50: 1.8 µM
  TGI: 3.38 µM
OVCAR-4 ovarian
  GI50: 2.02 µM
  TGI: 4.19 µM
OVCAR-5 ovarian
  GI50: 1.57 µM
  TGI: 3.01 µM
PC-3 prostate
  GI50: 1.77 µM
  TGI: 3.22 µM
RXF 393 renal
  GI50: 1.64 µM
  TGI: 3.19 µM
SF-539 CNS
  GI50: 1.75 µM
  TGI: 3.2 µM
SK-MEL-2 melanoma
  GI50: 1.94 µM
  TGI: 3.74 µM
SK-MEL-28 melanoma
  GI50: 1.71 µM
  TGI: 3.2 µM
SK-MEL-5 melanoma
  GI50: 1.86 µM
  TGI: 3.41 µM
SK-OV-3 ovarian
  GI50: 1.92 µM
  TGI: 3.9 µM
SN12C renal
  GI50: 1.74 µM
  TGI: 3.31 µM
SNB-19 CNS
  GI50: 1.83 µM
  TGI: 3.31 µM
SNB-75 CNS
  GI50: 1.44 µM
  TGI: 5.8 µM
SW-620 colon
  GI50: 1.82 µM
  TGI: 3.26 µM
TK-10 renal
  GI50: 1.69 µM
  TGI: 3.16 µM
UACC-257 melanoma
  GI50: 1.8 µM
  TGI: 3.43 µM
UACC-62 melanoma
  GI50: 1.78 µM
  TGI: 3.4 µM
UO-31 renal
  GI50: 1.51 µM
  TGI: 2.89 µM
